Reference: article PMC8381505, “Phase 1 clinical trial of the PI3Kδ inhibitor YY-20394 in patients with B-cell hematological malignancies” (Journal of Hematology & Oncology, 2021)
Like-named read-outs stand apart in the source and are kept apart here.

Columns and labels:
[1] = test system: relapsed or refractory B-cell malignancies; test: Phase 1 dose escalation: efficacy (ORR, DCR, PFS) in patients; type: in vivo, human
Protocol: Patients ≥ 18 years old with refractory or relapsed B-cell malignancies were enrolled from November, 2017 to completion of the trial in November, 2019. Inclusion and exclusion criteria are listed in Additional file 2 and baseline patient characteristics in Additional file 3: Table S2.
During dose escalation, patients received YY-20394 tablets q.d. at dosages of 20, 40, 80, 140 or 200 mg. The maximum tolerated dose (MTD), dose escalation phase and dose-limiting toxicity (DLT) as well as hematological toxicity classifications are described in Additional file 4. The primary endpoints were safety, tolerability and the MTD of YY-20394. Secondary endpoints were PK parameters and efficacy. Response criteria followed the revised International Research Working Group (IRWG) for non-Hodgkin lymphomas (NHL), and the International Working Group on Chronic Lymphocytic Leukemia (IWCLL) criteria for CLL [8]. Efficacy determinations were the objective response rate (ORR), disease control rate (DCR), complete remission (CR), partial remission (PR), stable disease (SD), progressive disease (PD) and progression-free survival (PFS).

PI3Kβ = test: PI3K isoform selectivity, β versus δ; type: biochemical
PI3Kα = test: PI3K isoform selectivity, α versus δ; type: biochemical
basophil activation = test: Inhibition of basophil activation in vitro; type: cell-based; details: at the serum concentration produced by the 80 mg dose level
[2] = Pharmacokinetics in patients after multiple administrations; type: in vivo, human; details: for AUC(0-inf) / AUC(0-t) / Cmax / Tmax / Vd/F / half-life / MRT last: human, serum, oral; for MRT last: read-out: MRT0→t
Excerpt: Additional File 6: Table S4. Mean pharmacokinetic parameters of patients after multiple administrations in each dosage group

[3] = 10 FL patients, 9/10, 95% CI 71.4, 100.0
[4] = number of patients of 25 evaluable

Q: Which “Ratio of IC50 γ/δ” value (PI3Kγ) does the source give for COc1ncc(-c2nc(N3CCOCC3)nc3c(CN4CCC(C(C)(C)O)CC4)cc(F)cc23)cc1NS(C)(=O)=O [YY-20394, N-[5-[6-fluoro-8-[[4-(1-hydroxy-1-methylethyl)-1-piperidinyl]methyl]-2-(4-morpholinyl)-4-quinazolinyl]-2-methoxy-3-pyridinyl]-methanesulfonamide] here?
A: Its value is 1125.

Q: What about the “kinase inhibition profile more PI3Kδ-selective” value (PI3Kγ; PI3Kδ versus PI3Kγ, compared with idelalisib) of the same compound?
A: The value was ~2 orders of magnitude.

Q: What about the longest treatment duration ([1]; 40 mg, CLL/SLL patient) of the same compound?
A: Its longest treatment duration is 36 months.

Q: And the “median PFS time, follicular lymphoma” value ([1]; 10 FL patients)?
A: The value was 300 days.

Q: What about the “DCR, follicular lymphoma” value [1, 3] of the same compound?
A: The value was 90%.

Q: What about the “ORR, follicular lymphoma” value [1, 3] of the same compound?
A: The value was 90%.

Q: What about the “overall ORR” value ([1]; 25 evaluable patients, 16/25, 95% CI 45.2, 82.8%) of the same compound?
A: The value was 64.0%.

Q: What about the “disease control rate (DCR)” value ([1]; 25 evaluable patients, 18/25, 95% CI 54.4, 89.6%) of the same compound?
A: Its value is 72.0%.

Q: What about the “median PFS time” value ([1]; all evaluable patients combined) of the same compound?
A: Its value is 255 days.

Q: What about the “CR, follicular lymphoma” value ([1]; number of FL patients, 80 mg) of the same compound?
A: The value was 3.

Q: And the “PD, follicular lymphoma” value ([1]; number of FL patients, 200 mg)?
A: The value was 1.

Q: And the “PR, follicular lymphoma” value ([1]; number of FL patients, 1/40 mg and 5/80 mg)?
A: The value was 6.

Q: And the “complete remission (CR)” value [1, 4]?
A: The value was 5.

Q: And the “partial remission (PR)” value [1, 4]?
A: Its value is 11.

Q: What about the “progressive disease (PD)” value [1, 4] of the same compound?
A: Its value is 7.

Q: What about the durable response ([1]; one PR patient with CLL/SLL, 40 mg q.d.) of the same compound?
A: Its durable response is “around 36 months”.

Q: And the “Ratio of IC50 β/δ” value (PI3Kβ)?
A: The value was 30.

Q: What about the “Ratio of IC50 α/δ” value (PI3Kα) of the same compound?
A: Its value is 252.

Q: And the “inhibition of basophil activation in vitro” value (basophil activation)?
A: The value was 90%.

Q: And the CL/F ([2]; 20 mg, mean)?
A: The CL/F was 16.3 L/h.

Q: What about the Cmin ([2]; 20 mg, mean) of the same compound?
A: Its Cmin is 28.7 ng/mL.

Q: And the Css ([2]; 20 mg, mean)?
A: The Css was 51.0 ng/mL.

Q: What about the CL/F ([2]; 40 mg, mean ± SD) of the same compound?
A: The CL/F was 13.4 ± 3.7 L/h.

Q: And the Cmin ([2]; 40 mg, mean ± SD)?
A: The Cmin was 73.0 ± 32.5 ng/mL.

Q: And the Css ([2]; 40 mg, mean ± SD)?
A: The Css was 132.7 ± 43.0 ng/mL.

Q: And the CL/F ([2]; 80 mg, mean ± SD)?
A: Its CL/F is 11.1 ± 3.1 L/h.

Q: What about the Cmin ([2]; 80 mg, mean ± SD) of the same compound?
A: Its Cmin is 180.5 ± 74.5 ng/mL.

Q: And the Css ([2]; 80 mg, mean ± SD)?
A: Its Css is 325.7 ± 97.8 ng/mL.

Q: And the CL/F ([2]; 140 mg, mean ± SD)?
A: The CL/F was 9.1 ± 0.6 L/h.

Q: And the Cmin ([2]; 140 mg, mean ± SD)?
A: Its Cmin is 359.6 ± 31.5 ng/mL.

Q: And the Css ([2]; 140 mg, mean ± SD)?
A: Its Css is 642.3 ± 40.2 ng/mL.

Q: And the CL/F ([2]; 200 mg, mean ± SD)?
A: The CL/F was 9.4 ± 2.2 L/h.

Q: What about the Cmin ([2]; 200 mg, mean ± SD) of the same compound?
A: Its Cmin is 472.4 ± 71.6 ng/mL.

Q: What about the Css ([2]; 200 mg, mean ± SD) of the same compound?
A: The Css was 918.6 ± 201.7 ng/mL.

Q: What about the “exposure (Cmax, AUC0-t, AUC0-∞) versus dose” value ([2]; 20 to 200 mg) of the same compound?
A: Its value is “increased with dosage”.

Q: What about the AUC(0-inf) ([2]; 20 mg, mean) of the same compound?
A: Its AUC(0-inf) is 4010 ng·h/mL.

Q: What about the AUC(0-t) ([2]; 20 mg, mean) of the same compound?
A: Its AUC(0-t) is 1220 ng·h/mL.

Q: And the Cmax ([2]; 20 mg, mean)?
A: Its Cmax is 94.6 ng/mL.

Q: And the Tmax ([2]; 20 mg, mean)?
A: The Tmax was 4 h.

Q: What about the Vd/F ([2]; 20 mg, mean) of the same compound?
A: The Vd/F was 930 L.

Q: What about the half-life ([2]; 20 mg, mean) of the same compound?
A: Its half-life is 39.5 h.

Q: And the MRT last ([2]; 20 mg, mean)?
A: Its MRT last is 65.7 h.

Q: What about the AUC(0-inf) ([2]; 40 mg, mean ± SD) of the same compound?
A: Its AUC(0-inf) is 5500 ng·h/mL.

Q: And the AUC(0-t) ([2]; 40 mg, mean ± SD)?
A: The AUC(0-t) was 3190 ng·h/mL.

Q: What about the Cmax ([2]; 40 mg, mean ± SD) of the same compound?
A: The Cmax was 208 ± 58.3 ng/mL.

Q: What about the Tmax ([2]; 40 mg, mean ± SD) of the same compound?
A: The Tmax was 2.7 ± 1.2 h.

Q: What about the Vd/F ([2]; 40 mg, mean ± SD) of the same compound?
A: Its Vd/F is 392 ± 228 L.

Q: What about the half-life ([2]; 40 mg, mean ± SD) of the same compound?
A: Its half-life is 19.7 ± 7.2 h.

Q: What about the MRT last ([2]; 40 mg, mean ± SD) of the same compound?
A: The MRT last was 28.1 ± 10.5 h.

Q: And the AUC(0-inf) ([2]; 80 mg, mean ± SD)?
A: The AUC(0-inf) was 16600 ng·h/mL.

Q: What about the AUC(0-t) ([2]; 80 mg, mean ± SD) of the same compound?
A: Its AUC(0-t) is 7820 ng·h/mL.

Q: What about the Cmax ([2]; 80 mg, mean ± SD) of the same compound?
A: The Cmax was 529 ± 170 ng/mL.

Q: And the Tmax ([2]; 80 mg, mean ± SD)?
A: The Tmax was 2.4 ± 1.7 h.

Q: And the Vd/F ([2]; 80 mg, mean ± SD)?
A: The Vd/F was 388 ± 392 L.

Q: And the half-life ([2]; 80 mg, mean ± SD)?
A: Its half-life is 25.3 ± 25.5 h.

Q: And the MRT last ([2]; 80 mg, mean ± SD)?
A: Its MRT last is 36.4 ± 37.6 h.

Q: What about the AUC(0-inf) ([2]; 140 mg, mean ± SD) of the same compound?
A: Its AUC(0-inf) is 24300 ng·h/mL.

Q: What about the AUC(0-t) ([2]; 140 mg, mean ± SD) of the same compound?
A: The AUC(0-t) was 15400 ng·h/mL.

Q: And the Cmax ([2]; 140 mg, mean ± SD)?
A: Its Cmax is 1190 ng/mL.

Q: What about the Tmax ([2]; 140 mg, mean ± SD) of the same compound?
A: The Tmax was 3.7 ± 2.5 h.

Q: And the Vd/F ([2]; 140 mg, mean ± SD)?
A: Its Vd/F is 215 ± 10 L.

Q: What about the half-life ([2]; 140 mg, mean ± SD) of the same compound?
A: Its half-life is 16.4 ± 0.3 h.

Q: What about the MRT last ([2]; 140 mg, mean ± SD) of the same compound?
A: Its MRT last is 23.4 ± 1.5 h.

Q: And the AUC(0-inf) ([2]; 200 mg, mean ± SD)?
A: The AUC(0-inf) was 36300 ng·h/mL.

Q: What about the AUC(0-t) ([2]; 200 mg, mean ± SD) of the same compound?
A: The AUC(0-t) was 22000 ng·h/mL.

Q: What about the Cmax ([2]; 200 mg, mean ± SD) of the same compound?
A: The Cmax was 1610 ng/mL.

Q: And the Tmax ([2]; 200 mg, mean ± SD)?
A: Its Tmax is 2 ± 1.5 h.

Q: What about the Vd/F ([2]; 200 mg, mean ± SD) of the same compound?
A: Its Vd/F is 239 ± 110 L.

Q: What about the half-life ([2]; 200 mg, mean ± SD) of the same compound?
A: Its half-life is 17.5 ± 6.3 h.

Q: What about the MRT last ([2]; 200 mg, mean ± SD) of the same compound?
A: The MRT last was 25.3 ± 8.8 h.
